pIC50: −log10 of the molar value.
Tests used:
Type in all cases: biochemical
human 11-beta HSD-1 = target: T1, human 11-beta HSD-1 (Homo sapiens, UniProt P28845); experiment: 11beta-HSD1 enzyme assay, human recombinant enzyme (HTRF cortisol); details: for pIC50: human recombinant enzyme from E. Coli, cortisone/NADPH, 150 minutes at 37° C., read-out: Inhibition of human 11-beta HSD-1 IC50; for Selectivity Ratio human HSD2/HSD1: ratio of IC50 human HSD2 to human HSD1
T1 construct: made in house; host or cells: E. coli
T1 sequence (P28845 whole entry): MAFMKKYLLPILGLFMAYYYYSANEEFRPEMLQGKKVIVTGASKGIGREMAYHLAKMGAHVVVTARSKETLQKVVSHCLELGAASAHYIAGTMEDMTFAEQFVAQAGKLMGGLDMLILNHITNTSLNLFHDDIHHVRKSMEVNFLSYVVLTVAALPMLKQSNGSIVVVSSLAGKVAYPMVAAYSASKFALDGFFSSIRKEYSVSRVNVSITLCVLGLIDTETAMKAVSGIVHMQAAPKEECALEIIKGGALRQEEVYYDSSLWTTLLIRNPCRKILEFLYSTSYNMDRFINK
Method: (§1) Human recombinant 11 beta-hydroxysteroid dehydrogenase type 1 (11 beta-HSD1) and type 2 (11beta-HSD2) enzymes were expressed in E. Coli. Mice and Rat liver microsome fractions were purchased from TEBU.
(§2) Reactions were initiated by addition of 10 μl 11beta-HSD1 (3 μg) from E. Coli, either as microsome fractions from rat and mice liver (2,5 μg). Following mixing, the plates were shaken for 150 minutes at 37° C. The reactions were terminated with 10 μl Acid-18beta glycyrrhetinic stop solution. Determinations of cortisol levels in 11 beta-HSD1 preparations were monitored by HTRF (HTRF cortisol assay from C is bio international).

mouse 11-beta HSD-1 = target: T2, mouse 11-beta HSD-1 (Mus musculus, UniProt P50172); experiment: 11beta-HSD1 enzyme assay, mice liver microsome fractions (HTRF cortisol); details: for pIC50: read-out: Inhibition of mouse 11-beta HSD-1 IC50
T2 construct: Mice and Rat liver microsome fractions were purchased from TEBU; tissue TEBU; host or cells: mouse liver microsome fractions
T2 sequence (P50172 whole entry): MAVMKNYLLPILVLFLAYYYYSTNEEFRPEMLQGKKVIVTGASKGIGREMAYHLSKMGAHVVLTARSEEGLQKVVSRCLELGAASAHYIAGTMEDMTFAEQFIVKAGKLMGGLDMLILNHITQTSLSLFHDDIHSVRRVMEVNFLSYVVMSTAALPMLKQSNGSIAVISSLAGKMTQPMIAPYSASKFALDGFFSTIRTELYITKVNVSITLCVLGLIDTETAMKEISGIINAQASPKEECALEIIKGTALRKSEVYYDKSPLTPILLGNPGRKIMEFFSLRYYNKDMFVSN
Method: as §1, §2

rat 11-beta HSD-1 = target: T3, rat 11-beta HSD-1 (Rattus norvegicus, UniProt P16232); experiment: 11beta-HSD1 enzyme assay, rat liver microsome fractions (HTRF cortisol); details: for pIC50: read-out: Inhibition of rat 11-beta HSD-1 IC50
T3 construct: Mice and Rat liver microsome fractions were purchased from TEBU; tissue TEBU; host or cells: rat liver microsome fractions
T3 sequence (P16232 whole entry): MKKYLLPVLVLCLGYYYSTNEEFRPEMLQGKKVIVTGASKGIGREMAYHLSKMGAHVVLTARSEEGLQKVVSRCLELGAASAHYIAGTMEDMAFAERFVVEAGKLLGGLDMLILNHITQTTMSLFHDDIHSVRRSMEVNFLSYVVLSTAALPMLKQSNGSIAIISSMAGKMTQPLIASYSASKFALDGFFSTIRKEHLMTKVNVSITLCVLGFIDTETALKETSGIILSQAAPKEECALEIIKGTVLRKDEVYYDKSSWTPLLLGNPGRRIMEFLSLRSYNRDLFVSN
Method: as §1, §2

human 11-beta HSD-2 = target: T4, human 11-beta HSD-2 (Homo sapiens, UniProt P80365); experiment: 11beta-HSD2 enzyme assay, human recombinant enzyme; details: cortisol/NAD, read-out: Inhibition of human 11-beta HSD-2 IC50
T4 construct: made in house; host or cells: E. coli
T4 sequence (P80365 1-405): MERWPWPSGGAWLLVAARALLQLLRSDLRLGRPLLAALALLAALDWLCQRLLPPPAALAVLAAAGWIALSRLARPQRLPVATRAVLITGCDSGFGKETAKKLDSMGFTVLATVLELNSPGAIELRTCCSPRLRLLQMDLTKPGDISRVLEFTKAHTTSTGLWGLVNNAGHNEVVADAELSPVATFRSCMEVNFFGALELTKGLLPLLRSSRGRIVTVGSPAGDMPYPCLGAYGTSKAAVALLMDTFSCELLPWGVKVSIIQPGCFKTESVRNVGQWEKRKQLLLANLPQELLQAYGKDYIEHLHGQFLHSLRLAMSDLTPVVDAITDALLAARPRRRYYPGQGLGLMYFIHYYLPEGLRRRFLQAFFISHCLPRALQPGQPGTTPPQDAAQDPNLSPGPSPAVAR
Description: as §1

Row | Compound | pIC50 (human 11-beta HSD-1) | pIC50 (mouse 11-beta HSD-1) | pIC50 (rat 11-beta HSD-1) | other results
1 | O=C(C1CCCCC1)N1CCC(c2c[nH]c3ncccc23)C1 (stereo not shown) [Ex. 3, (Cycloxexyl)-[3-(1H-pyrrolo[2,3-b]pyridine-3-yl)-pyrrolidine-1-yl]-methanone] | 6.27 | 6.02 | 6.29 | –
2 | CN(C)c1ccc(C(=O)N2CCC(c3c[nH]c4ncccc34)C2)cc1 (stereo not shown) [Ex. 7, (4-Dimethylaminophenyl)-[3-(1H-pyrrolo[2,3-b]pyridine-3-yl)-pyrrolidine-1-yl]-methanone] | – | 6.77 | 7.37 | pIC50 (human 11-beta HSD-2): < 5.00
3 | O=C(N1CCC(c2c[nH]c3ncccc23)C1)C1(c2ccccc2)CC1 (stereo not shown) [Ex. 8, (1-Phenyl-cyclopropyl)-[3-(1H-pyrrolo[2,3-b]pyridine-3-yl)-pyrrolidine-1-yl]-methanone] | 7.30 | – | 7.32 | Selectivity Ratio human HSD2/HSD1 (human 11-beta HSD-1): >200
4 | CC(C)(C(=O)N1CCC(c2c[nH]c3ncccc23)C1)c1ccc(Cl)cc1 (stereo not shown) [Ex. 9, 2-(4-Chlorophenyl)-2-methyl-1-[3-(1H-pyrrolo[2,3-b]pyridine-3-yl)-pyrrolidine-1-yl]-propan-1-one] | 8.01 | – | 6.04 | Selectivity Ratio human HSD2/HSD1 (human 11-beta HSD-1): > 1000
5 | CC(C)(C(=O)N1CCC(c2c[nH]c3ncccc23)CC1)N1CCN(c2ccc(C(F)(F)F)cn2)CC1 [Ex. 13, 2-Methyl-1-[4-(1H-pyrrolo[2,3-b]pyridin-3-yl)-piperidine-1-yl]-2-[4-(5-trifluoromethyl-pyridine-2-yl)-piperazine-1-yl]-propan-1-one] | 5.94 | – | – | –
6 | CC(C)(COc1ccc(F)cc1)CC(=O)N1CCC(c2c[nH]c3ncccc23)CC1 [Ex. 14, 4-(4-Fluoro-phenoxy)-3,3-dimethyl-1-[4-(1H-pyrrolo[2,3-b]pyridine-3-yl)-piperidine-1-yl]-butan-1-one] | 6.96 | – | – | Inhibition of mouse 11-beta HSD-1, activity in % of Ctrl (mouse 11-beta HSD-1; at 1 μM): 86% of Ctrl; Inhibition of rat 11-beta HSD-1, activity in % of Ctrl (rat 11-beta HSD-1; at 1 μM): 85% of Ctrl
7 | CC(C)(COc1ccc(F)cc1)CC(=O)N1CCC(c2c[nH]c3ncccc23)C1 (stereo not shown) [Ex. 17, 4-(4-Fluoro-phenoxy)-3,3-dimethyl-1-[3-(1H-pyrrolo[2,3-b]pyridine-3-yl)-pyrrolidine-1-yl]-butan-1-one] | 7.80 | 5.68 | – | –
8 | O=C(CS(=O)(=O)c1ccc(Cl)cc1)N1CCC(c2c[nH]c3ncccc23)C1 (stereo not shown) [Ex. 20, 2-(4-Chloro-benzenesulfonyl)-1-[3-(1H-pyrrolo[2,3-b]pyridine-3-yl)-pyrrolidine-1-yl]-ethanone] | 7.54 | – | – | –
